In ChEMBL document CHEMBL3244120, “Monomethylthio analogues of 1-(2,4,5-trimethoxyphenyl)-2-aminopropane” (J Med Chem, 1977):

Tests used:
[1] = tested on: Brain; test: Drug uptake in Sprague-Dawley rat brain assessed as R to S enantiomeric ratio at 30 mg/kg, ip after 60 mins by electron-capture gas chromatographic analysis; type: ADME, organism-based; parameters: dose 30 mg/kg, route intraperitoneal; conditions: in vivo, 1 h
[2] = tested on: Oryctolagus cuniculus; test: Hyperthermic activity in New Zealand rabbit assessed as mean maximum rise in rectal temperature at 14.2 umol/kg administered in marginal ear vein as solution of amine hydrochloride in nonpyrogenic saline; type: functional, Rectum
[3] = tested on: Oryctolagus cuniculus; test: Hyperthermic activity in New Zealand rabbit assessed as mean maximum rise in rectal temperature at 7.1 umol/kg administered in marginal ear vein as solution of amine hydrochloride in nonpyrogenic saline; type: functional, Rectum
[4] = tested on: Oryctolagus cuniculus; test: Hyperthermic activity in New Zealand rabbit assessed as dose required for 1 degC rise in rectal temperature administered in marginal ear vein as solution of amine hydrochloride in nonpyrogenic saline; type: functional, Rectum
[5] = tested on: Oryctolagus cuniculus; test: Hyperthermic activity in New Zealand rabbit at 0.25 to 21.2 umol/kg administered in marginal ear vein as solution of amine hydrochloride in nonpyrogenic saline by time-temperature curve integration method relative to l-(2,5-dimethoxy-4-methylphenyl)-2-aminopropane; type: functional
[6] = tested on: Oryctolagus cuniculus; test: Hyperthermic activity in New Zealand rabbit assessed as increase in rectal temperature measured as time to reach peak effect at 14.2 umol/kg administered in marginal ear vein as solution of amine hydrochloride in nonpyrogenic saline; type: functional, Rectum
[7] = tested on: Brain; test: Drug uptake in Sprague-Dawley rat brain assessed as R to S enantiomeric ratio at 30 mg/kg, ip after 15 mins by electron-capture gas chromatographic analysis; type: ADME, organism-based; parameters: dose 30 mg/kg, route intraperitoneal; conditions: in vivo, 0.25 h
[8] = tested on: Oryctolagus cuniculus; test: Hyperthermic activity in New Zealand rabbit assessed as mean maximum rise in rectal temperature at 0.25 to 21.2 umol/kg administered in marginal ear vein as solution of amine hydrochloride in nonpyrogenic saline relative to l-(2,5-dimethoxy-4-methylphenyl)-2-aminopropane; type: functional, Rectum
[9] = tested on: Brain; test: Drug uptake in Sprague-Dawley rat brain assessed as R to S enantiomeric ratio at 30 mg/kg, ip after 30 mins by electron-capture gas chromatographic analysis; type: ADME, organism-based; parameters: dose 30 mg/kg, route intraperitoneal; conditions: in vivo, 0.5 h
[10] = tested on: Oryctolagus cuniculus; test: Hyperthermic activity in New Zealand rabbit assessed as increase in rectal temperature measured as time to reach peak effect at 7.1 umol/kg administered in marginal ear vein as solution of amine hydrochloride in nonpyrogenic saline; type: functional, Rectum
[11] = tested on: Oryctolagus cuniculus; test: Hyperthermic activity in New Zealand rabbit assessed as increase in rectal temperature measured as time to reach peak effect at 10.6 umol/kg administered in marginal ear vein as solution of amine hydrochloride in nonpyrogenic saline; type: functional, Rectum
[12] = tested on: Oryctolagus cuniculus; test: Hyperthermic activity in New Zealand rabbit assessed as mean maximum rise in rectal temperature at 21.3 umol/kg administered in marginal ear vein as solution of amine hydrochloride in nonpyrogenic saline; type: functional, Rectum
[13] = tested on: Oryctolagus cuniculus; test: Hyperthermic activity in New Zealand rabbit assessed as mean maximum rise in rectal temperature at 5.3 umol/kg administered in marginal ear vein as solution of amine hydrochloride in nonpyrogenic saline; type: functional, Rectum
[14] = tested on: Oryctolagus cuniculus; test: Hyperthermic activity in New Zealand rabbit assessed as increase in rectal temperature measured as time to reach peak effect at 21.3 umol/kg administered in marginal ear vein as solution of amine hydrochloride in nonpyrogenic saline; type: functional, Rectum
[15] = tested on: Oryctolagus cuniculus; test: Hyperthermic activity in New Zealand rabbit assessed as increase in rectal temperature measured as time to reach peak effect at 5.3 umol/kg administered in marginal ear vein as solution of amine hydrochloride in nonpyrogenic saline; type: functional, Rectum
[16] = tested on: Oryctolagus cuniculus; test: Hyperthermic activity in New Zealand rabbit assessed as mean maximum rise in rectal temperature at 10.6 umol/kg administered in marginal ear vein as solution of amine hydrochloride in nonpyrogenic saline; type: functional, Rectum
[17] = tested on: Brain; test: Drug uptake in Sprague-Dawley rat brain assessed as R to S enantiomeric ratio at 30 mg/kg, ip after 120 mins by electron-capture gas chromatographic analysis; type: ADME, organism-based; parameters: dose 30 mg/kg, route intraperitoneal; conditions: in vivo, 2 h
[18] = tested on: Oryctolagus cuniculus; test: Hyperthermic activity in New Zealand rabbit assessed as mean maximum rise in rectal temperature at 0.67 umol/kg administered in marginal ear vein as solution of amine hydrochloride in nonpyrogenic saline; type: functional, Rectum
[19] = tested on: Oryctolagus cuniculus; test: Hyperthermic activity in New Zealand rabbit assessed as increase in rectal temperature measured as time to reach peak effect at 2 umol/kg administered in marginal ear vein as solution of amine hydrochloride in nonpyrogenic saline; type: functional, Rectum
[20] = tested on: Oryctolagus cuniculus; test: Hyperthermic activity in New Zealand rabbit assessed as mean maximum rise in rectal temperature at 0.22 umol/kg administered in marginal ear vein as solution of amine hydrochloride in nonpyrogenic saline; type: functional, Rectum
[21] = tested on: Oryctolagus cuniculus; test: Hyperthermic activity in New Zealand rabbit assessed as increase in rectal temperature measured as time to reach peak effect at 0.22 umol/kg administered in marginal ear vein as solution of amine hydrochloride in nonpyrogenic saline; type: functional, Rectum
[22] = tested on: Oryctolagus cuniculus; test: Hyperthermic activity in New Zealand rabbit assessed as increase in rectal temperature measured as time to reach peak effect at 0.67 umol/kg administered in marginal ear vein as solution of amine hydrochloride in nonpyrogenic saline; type: functional, Rectum
[23] = tested on: Oryctolagus cuniculus; test: Hyperthermic activity in New Zealand rabbit assessed as mean maximum rise in rectal temperature at 2 umol/kg administered in marginal ear vein as solution of amine hydrochloride in nonpyrogenic saline; type: functional, Rectum
[24] = tested on: Oryctolagus cuniculus; test: Hyperthermic activity in New Zealand rabbit assessed as mean maximum rise in rectal temperature at 1 umol/kg administered in marginal ear vein as solution of amine hydrochloride in nonpyrogenic saline; type: functional, Rectum
[25] = tested on: Brain; test: Drug uptake in Sprague-Dawley rat brain assessed as R to S enantiomeric ratio at 15 mg/kg, ip after 60 mins by electron-capture gas chromatographic analysis; type: ADME, organism-based; parameters: dose 15 mg/kg, route intraperitoneal; conditions: in vivo, 1 h
[26] = tested on: Oryctolagus cuniculus; test: Hyperthermic activity in New Zealand rabbit assessed as increase in rectal temperature measured as time to reach peak effect at 0.25 umol/kg administered in marginal ear vein as solution of amine hydrochloride in nonpyrogenic saline; type: functional, Rectum
[27] = tested on: Brain; test: Drug uptake in Sprague-Dawley rat brain assessed as R to S enantiomeric ratio at 15 mg/kg, ip after 5 mins by electron-capture gas chromatographic analysis; type: ADME, organism-based; parameters: dose 15 mg/kg, route intraperitoneal; conditions: in vivo
[28] = tested on: Brain; test: Drug uptake in Sprague-Dawley rat brain assessed as R to S enantiomeric ratio at 15 mg/kg, ip after 120 mins by electron-capture gas chromatographic analysis; type: ADME, organism-based; parameters: dose 15 mg/kg, route intraperitoneal; conditions: in vivo, 2 h
[29] = tested on: Brain; test: Drug uptake in Sprague-Dawley rat brain assessed as R to S enantiomeric ratio at 15 mg/kg, ip after 15 mins by electron-capture gas chromatographic analysis; type: ADME, organism-based; parameters: dose 15 mg/kg, route intraperitoneal; conditions: in vivo, 0.25 h
[30] = tested on: Oryctolagus cuniculus; test: Hyperthermic activity in New Zealand rabbit assessed as increase in rectal temperature measured as time to reach peak effect at 1 umol/kg administered in marginal ear vein as solution of amine hydrochloride in nonpyrogenic saline; type: functional, Rectum
[31] = tested on: Oryctolagus cuniculus; test: Hyperthermic activity in New Zealand rabbit assessed as increase in rectal temperature measured as time to reach peak effect at 0.50 umol/kg administered in marginal ear vein as solution of amine hydrochloride in nonpyrogenic saline; type: functional, Rectum
[32] = tested on: Brain; test: Drug uptake in Sprague-Dawley rat brain assessed as R to S enantiomeric ratio at 15 mg/kg, ip after 30 mins by electron-capture gas chromatographic analysis; type: ADME, organism-based; parameters: dose 15 mg/kg, route intraperitoneal; conditions: in vivo, 0.5 h
[33] = tested on: Oryctolagus cuniculus; test: Hyperthermic activity in New Zealand rabbit assessed as mean maximum rise in rectal temperature at 0.50 umol/kg administered in marginal ear vein as solution of amine hydrochloride in nonpyrogenic saline; type: functional, Rectum
[34] = tested on: Oryctolagus cuniculus; test: Hyperthermic activity in New Zealand rabbit assessed as mean maximum rise in rectal temperature at 0.25 umol/kg administered in marginal ear vein as solution of amine hydrochloride in nonpyrogenic saline; type: functional, Rectum

Compound: COc1cc(CC(C)N)c(SC)cc1OC.Cl (racemic)
- Ratio [1]: 1.43
- T [2]: 1.01 °C
- T [3]: 0.82 °C
- Activity [4]: 14 µmol/kg
- fold change (FC) [5]: 0.022
- Time [6]: 75 min
- Ratio [7]: 1.14
- fold change (FC) [8]: 0.017
- Ratio [9]: 1.09
- Time [10]: 105 min

Compound: COc1cc(OC)c(SC)cc1CC(C)N.Cl (racemic)
- Ratio [1]: 1.35
- Time [11]: 135 min
- T [12]: 1.62 °C
- Activity [4]: 9.77 µmol/kg
- fold change (FC) [5]: 0.039
- T [13]: 0.6 °C
- Time [14]: 180 min
- Time [15]: 120 min
- Ratio [7]: 1.1
- T [16]: 1.09 °C
- fold change (FC) [8]: 0.028
- Ratio [9]: 1.11

Compound: COc1cc(SC)c(OC)cc1CC(C)N.Cl (racemic)
- Ratio [1]: 1.23
- Ratio [17]: 1.62
- Activity [4]: 0.5 µmol/kg
- fold change (FC) [5]: 0.64
- T [18]: 1.15 °C
- Time [19]: 195 min
- T [20]: 0.6 °C
- Ratio [7]: 1.54
- fold change (FC) [8]: 0.54
- Ratio [9]: 1.14
- Time [21]: 120 min
- Time [22]: 165 min
- T [23]: 2.31 °C

Compound: COc1cc(CC(C)N)c(OC)cc1C.Cl (racemic)
- T [24]: 2.85 °C
- Activity [4]: 0.27 µmol/kg
- Ratio [25]: 1.55
- fold change (FC) [5]: 1
- Time [26]: 135 min
- Ratio [27]: 0.95
- Ratio [28]: 1.34
- Ratio [29]: 1.06
- fold change (FC) [8]: 1
- Time [30]: 165 min
- Time [31]: 195 min
- Ratio [32]: 1.46
- T [33]: 1.98 °C
- T [34]: 0.8 °C

Compound: CCN(CC)C(=O)[C@@H]1C=C2c3cccc4[nH]cc(c34)C[C@H]2N(C)C1 [LYSERGIDE]
- fold change (FC) [8]: 33

Compound: COc1cc(CCN)cc(OC)c1OC [MESCALINE]
- fold change (FC) [8]: 0.0006
